# Experimental data taken from ChEMBL document CHEMBL1140388, “Privileged structure-based ligands for melanocortin receptors-tetrahydroquinolines, indoles, and aminotetralines” (Bioorg Med Chem Lett, 2005).
# Tests used:
# [1] = target: Melanocortin receptor 4 (Homo sapiens, UniProt P32245); assay: Inhibition of [125I]-NDP MSH binding towards human melanocortin 4 receptor
# [2] = target: Melanocortin receptor 3 (Homo sapiens, UniProt P41968); assay: Inhibition of [125I]-NDP MSH binding towards human melanocortin 3 receptor
# Melanocortin receptor 3, sequence (P41968 whole entry): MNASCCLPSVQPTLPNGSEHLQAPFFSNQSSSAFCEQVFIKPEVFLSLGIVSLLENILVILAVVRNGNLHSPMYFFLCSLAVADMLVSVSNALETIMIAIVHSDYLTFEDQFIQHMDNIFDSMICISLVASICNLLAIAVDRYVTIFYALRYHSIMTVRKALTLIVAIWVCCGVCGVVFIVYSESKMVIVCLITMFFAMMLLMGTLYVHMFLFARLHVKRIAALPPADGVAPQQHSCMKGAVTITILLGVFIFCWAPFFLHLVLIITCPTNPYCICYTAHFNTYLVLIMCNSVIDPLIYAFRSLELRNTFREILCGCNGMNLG
# [3] = target: Melanocortin receptor 5 (Homo sapiens, UniProt P33032); assay: Inhibition of [125I]-NDP MSH binding towards human melanocortin 5 receptor
# Melanocortin receptor 5, sequence (P33032 whole entry): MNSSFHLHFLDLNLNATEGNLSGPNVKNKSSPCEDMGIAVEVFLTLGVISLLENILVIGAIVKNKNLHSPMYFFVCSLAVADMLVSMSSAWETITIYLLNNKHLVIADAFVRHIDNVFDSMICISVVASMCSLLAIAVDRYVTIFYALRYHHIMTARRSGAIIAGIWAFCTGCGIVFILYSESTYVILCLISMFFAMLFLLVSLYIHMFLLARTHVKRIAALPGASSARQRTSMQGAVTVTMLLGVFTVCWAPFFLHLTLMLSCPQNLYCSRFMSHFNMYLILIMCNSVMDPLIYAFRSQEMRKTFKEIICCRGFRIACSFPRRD
# [4] = target: Melanocortin receptor (M1 and M4) (Homo sapiens) (UniProt P32245+Q01726); assay: Binding selectivity across hMC 4 and hMC 1 by determining the competitive inhibition of [125 I]NDP MSH binding; format: protein assay
# [5] = target: Melanocortin receptor (M3 and M4) (Homo sapiens) (UniProt P32245+P41968); assay: Binding selectivity across hMC 4 and hMC 3 by determining the competitive inhibition of [125 I]NDP MSH binding; format: protein assay
# [6] = target: Melanocortin receptor (M4 and M5) (Homo sapiens) (UniProt P32245+P33032); assay: Binding selectivity across hMC 4 and hMC 5 by determining the competitive inhibition of [125 I]NDP MSH binding; format: protein assay
# Melanocortin receptor (M4 and M5) (Homo sapiens), sequence (P32245 whole entry, looked up): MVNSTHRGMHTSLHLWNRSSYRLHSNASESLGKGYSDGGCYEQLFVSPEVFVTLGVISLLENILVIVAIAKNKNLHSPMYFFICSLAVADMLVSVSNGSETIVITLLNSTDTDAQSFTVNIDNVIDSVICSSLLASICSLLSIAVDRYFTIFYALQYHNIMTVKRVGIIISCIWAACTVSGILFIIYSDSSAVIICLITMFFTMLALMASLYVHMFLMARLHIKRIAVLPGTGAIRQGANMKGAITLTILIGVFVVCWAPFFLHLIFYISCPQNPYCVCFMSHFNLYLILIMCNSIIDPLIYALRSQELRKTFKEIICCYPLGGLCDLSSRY
# Melanocortin receptor (M4 and M5) (Homo sapiens), sequence (P33032 whole entry, looked up): as the sequence (P33032 whole entry) above
# [7] = target: Melanocyte-stimulating hormone receptor (Homo sapiens, UniProt Q01726); assay: Inhibition of [125I]-NDP MSH binding towards human melanocortin 1 receptor
# Melanocyte-stimulating hormone receptor, sequence (Q01726 whole entry): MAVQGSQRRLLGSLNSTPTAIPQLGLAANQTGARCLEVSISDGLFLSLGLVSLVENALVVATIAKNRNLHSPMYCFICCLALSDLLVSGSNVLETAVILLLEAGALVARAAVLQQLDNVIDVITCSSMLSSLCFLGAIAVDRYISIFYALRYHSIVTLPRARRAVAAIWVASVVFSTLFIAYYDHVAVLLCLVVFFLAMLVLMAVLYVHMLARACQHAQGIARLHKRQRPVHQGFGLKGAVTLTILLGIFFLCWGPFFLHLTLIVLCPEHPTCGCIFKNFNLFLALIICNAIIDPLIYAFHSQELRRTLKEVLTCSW
# Melanocortin receptor 4, sequence (P32245 whole entry): as the sequence (P32245 whole entry, looked up) above
SMILES,Ki [1] [nM],also measured
O=C(N[C@H](Cc1ccc(Cl)cc1)C(=O)N1CCN(c2cccc3c2NCCC3)CC1)[C@H]1Cc2ccccc2CN1,1600,
O=C(N[C@H](Cc1ccc(Cl)cc1)C(=O)N1CCN(c2cccc3c2CCCC3)CC1)[C@H]1Cc2ccccc2CN1,4200,Ki [2]: 1200 nM; Ki [3]: 260 nM; Binding selectivity [4]: 47; Binding selectivity [5]: 181; Binding selectivity [6]: 3.8; Ki [7]: 3000 nM
CS(=O)(=O)N1CCc2cccc(N3CCN(C(=O)C(Cc4ccc(Cl)cc4)NC(=O)[C@H]4Cc5ccccc5CN4)CC3)c21 (stereo partly drawn),900,
CN1CCc2cccc(N3CCN(C(=O)[C@@H](Cc4ccc(Cl)cc4)NC(=O)[C@H]4Cc5ccccc5CN4)CC3)c2C1,280,
CCN(CC)C1CCc2cccc(N3CCN(C(=O)[C@@H](Cc4ccc(Cl)cc4)NC(=O)[C@H]4Cc5ccccc5CN4)CC3)c2C1 (stereo partly drawn),170,
O=C(N[C@H](Cc1ccc(Cl)cc1)C(=O)N1CCN(c2cccc3c2CN(S(=O)(=O)c2ccccc2)CC3)CC1)[C@H]1Cc2ccccc2CN1,2500,Ki [2]: 1200 nM; Ki [3]: 700 nM; Binding selectivity [4]: 23; Binding selectivity [5]: 4; Binding selectivity [6]: 2.6; Ki [7]: 7000 nM
CN(C)C1CCc2cccc(N3CCN(C(=O)[C@@H](Cc4ccc(Cl)cc4)NC(=O)[C@H]4Cc5ccccc5CN4)CC3)c2C1 (stereo partly drawn),70,Ki [2]: 8200 nM; Ki [3]: 280 nM; Binding selectivity [4]: 72; Binding selectivity [5]: 164; Binding selectivity [6]: 5.6; Ki [7]: 4000 nM
CC(C)S(=O)(=O)N1CCc2cccc(N3CCN(C(=O)[C@@H](Cc4ccc(Cl)cc4)NC(=O)[C@H]4Cc5ccccc5CN4)CC3)c2C1,950,
CC(=O)N1CCCc2cccc(N3CCN(C(=O)[C@@H](Cc4ccc(Cl)cc4)NC(=O)[C@H]4Cc5ccccc5CN4)CC3)c21,7700,Ki [2]: 500 nM; Ki [3]: 4000 nM; Binding selectivity [4]: 23; Binding selectivity [5]: 0.6; Binding selectivity [6]: 5; Ki [7]: 20000 nM
CCCN(CCC)C1CCc2cccc(N3CCN(C(=O)[C@@H](Cc4ccc(Cl)cc4)NC(=O)[C@H]4Cc5ccccc5CN4)CC3)c2C1 (stereo partly drawn),180,
CNC1CCc2cccc(N3CCN(C(=O)[C@@H](Cc4ccc(Cl)cc4)NC(=O)[C@H]4Cc5ccccc5CN4)CC3)c2C1 (stereo partly drawn),150,
CS(=O)(=O)N1CCc2cccc(N3CCN(C(=O)[C@@H](Cc4ccc(Cl)cc4)NC(=O)[C@H]4Cc5ccccc5CN4)CC3)c2C1,600,
CCN1CCc2c(cccc2N2CCN(C(=O)[C@@H](Cc3ccc(Cl)cc3)NC(=O)[C@H]3Cc4ccccc4CN3)CC2)C1,700,
CS(=O)(=O)N1CCCc2cccc(N3CCN(C(=O)C(Cc4ccc(Cl)cc4)NC(=O)[C@H]4Cc5ccccc5CN4)CC3)c21 (stereo partly drawn),900,
CN(C1CCc2cccc(N3CCN(C(=O)[C@@H](Cc4ccc(Cl)cc4)NC(=O)[C@H]4Cc5ccccc5CN4)CC3)c2C1)S(C)(=O)=O (stereo partly drawn),530,

# The remaining molecules from weak to strong by Ki [1], led by results:
Ki [1] [nM],SMILES,also measured
4800,O=C(N[C@H](Cc1ccc(Cl)cc1)C(=O)N1CCN(c2cccc3cc[nH]c23)CC1)[C@H]1Cc2ccccc2CN1,
3900,CS(=O)(=O)N1CCc2c(cccc2N2CCN(C(=O)[C@@H](Cc3ccc(Cl)cc3)NC(=O)[C@H]3Cc4ccccc4CN3)CC2)C1,
2100,O=C(N[C@H](Cc1ccc(Cl)cc1)C(=O)N1CCN(c2cccc3c2NCC3)CC1)[C@H]1Cc2ccccc2CN1,
500,CC(=O)N1CCc2cccc(N3CCN(C(=O)[C@@H](Cc4ccc(Cl)cc4)NC(=O)[C@H]4Cc5ccccc5CN4)CC3)c2C1,
410,CC(=O)NC1CCc2cccc(N3CCN(C(=O)[C@@H](Cc4ccc(Cl)cc4)NC(=O)[C@H]4Cc5ccccc5CN4)CC3)c2C1 (stereo partly drawn),
240,NC1CCc2cccc(N3CCN(C(=O)[C@@H](Cc4ccc(Cl)cc4)NC(=O)[C@H]4Cc5ccccc5CN4)CC3)c2C1 (stereo partly drawn),
190,CCN1CCc2cccc(N3CCN(C(=O)[C@@H](Cc4ccc(Cl)cc4)NC(=O)[C@H]4Cc5ccccc5CN4)CC3)c2C1,
80,CN(C)[C@@H]1CCc2cccc(N3CCN(C(=O)[C@@H](Cc4ccc(Cl)cc4)NC(=O)[C@H]4Cc5ccccc5CN4)CC3)c2C1,
50,CN(C)[C@H]1CCc2cccc(N3CCN(C(=O)[C@@H](Cc4ccc(Cl)cc4)NC(=O)[C@H]4Cc5ccccc5CN4)CC3)c2C1,
